Measurements taken from patent US4279912A, “Novel imidazoquinolines” (Roussel Uclaf, priority 1977, dated 1981).
Counter-ions that a name gives are not always drawn.

The molecules below were run on Passive cutaneous anaphylaxis (PCA) (assay: Passive cutaneous anaphylaxis (PCA) in rats). Conditions: Rattus norvegicus, read-out: ED50 (dose of drug giving 50% inhibition), i.v., intravenous dosing immediately prior to antigen/Evans blue challenge.
Assay type: in vivo
Excerpt: Cutaneous anaphylaxis can be induced in rats by intradermal (ID) sensitization with antiserum followed three days later by systemic challenge with antigen. Evans blue dye injected with the antigen is used as a marker to assess the severity of the local response. Anti-allergic drugs inhibit this reaction. This method has been described by OVARY (1962) "[…] Cutaneous Anaphylaxis in Allergology" Page 358-367 Ed. Brown: Pergamon Press:-male rats weighing 180-220 grams are used in groups of seven. […] 1. Wash 120 grams of Al(OH)3 gel in 140 ml of saline (use of a macerater facilitates mixing). 2. Centrifuge at 3,000 r.p.m. for about 10 minutes. 3. Resuspend the precipitate with 300 ml of albumen egg powder (1.3 mg/ml) in saline and allow to stand for 30 minutes. 4. Centrifuge at 3,000 r.p.m. for 10 minutes. 5. Weigh the wet precipitate and to each gram weight add 1 ml of saline. Store in refrigerator (Quantity sufficient for 60 rats for a 3 day sensitization program). […] 1 ml of the alum precipitated ovalbumen was injected subcutaneously into rats weighing 180-220 grams on days 0,2,4. The rats were bled on day 14 either by cardiac puncture or via the dorsal abdominal aorta. Equal quantities of serum from each animal were pooled and thoroughly mixed and 2 ml aliquots were stored at -20° C. in plastic tubes. Serum Dilution for PCA The antiserum for sensitization was diluted so that an ID injection of 0.1 ml into control animals would give an average score of a single spot of between 2.0-3.5 using a 4 point scoring system. Method (A) SENSITIZATION: The rats were anaesthetized with Nembutal (40-60 mg/kg i.p.) and were then sensitized by four ID injections (0.1 ml each) on their shaved backs. The animals were then left for a period of three days to develop sensitization. (B) […]: The sensitized rats were dosed orally or intraveneously with the drug immediately prior to intraveneous challenge via the superficial penile vein with 1 ml of an antigen/Evans blue mixture (1 mg albumen egg powder in 0.5 ml saline plus 0.5 ml of 1% Evans blue). The injections were speeded up by using an automatic 1 ml self-filling glass syringe. The "challenged" rats were killed after 30 minutes, (usually pithed) and their skin on the dorsal surface was removed. The degree and area of blueing, proportional to the anaphylactic reaction was assessed on a four point scoring system. Calculations 1. Total scores for sites 1,2,3 and 4=X 2. Mean value of X for each group=X 3. X t=X for test group X c=X for control group [formula] 5. […] ED50 values for the compounds tested in the passive cutaneous anaphylaxis screen (in rats) are as follows: […]

First: O=C(O)c1cn2c(ccc3ccccc32)n1 [Example 2, imidazo-[1,2-a]-quinoline-2-carboxylic acid hydrochloride]
Second: O=C(O)c1cn2c(ccc3ccc(Cl)cc32)n1 [Example 10, sodium 8-chloroimidazo-[1,2-a]-quinoline-2-carboxylate]
The ED50 of the first is 4.2-fold higher: 0.29 mg/kg for the first, 0.069 mg/kg for the second.

Going from COc1cc2nc(C(=O)O)cn2c2ccccc12 [Example 4, THAM salt of 5-methoxyimidazo-[1,2-a]-quinoline-2-carboxylic acid] to CC(C)Oc1cc2nc(C(=O)O)cn2c2ccccc12 [Example 8, 5-isopropoxyimidazo-[1,2-a]-quinoline-2-carboxylic acid hydrochloride], the ED50 falls from 0.57 mg/kg to 0.12 mg/kg (4.8-fold).

Compared with O=C(O)c1cn2c(cc(Cl)c3ccccc32)n1 [Example 6, 5-chloroimidazo-[1,2-a]-quinoline-2-carboxylic acid hydrochloride], O=C(O)c1cn2c(cc(Br)c3ccccc32)n1 [Example 26, 5-bromoimidazo-[1,2-a]-quinoline-2-carboxylic acid] is 6.1-fold higher in ED50: 0.0075 mg/kg for the first, 0.046 mg/kg for the second.

Compared with COc1ccc2c(OC)cc3nc(C(=O)O)cn3c2c1 [Example 12, 5,8-dimethoxyimidazo-[1,2-a]-quinoline-2-carboxylic acid], COc1ccc2c(OC(C)C)cc3nc(C(=O)O)cn3c2c1 [Example 14, 8-methoxy-5-isopropoxyimidazo-[1,2-a]-quinoline-2-carboxylic acid] is 13-fold lower in ED50: 1.22 mg/kg for the first, 0.091 mg/kg for the second.

COc1ccc2c(Cl)cc3nc(C(=O)O)cn3c2c1.Cl [Example 16, 5-chloro-8-methoxyimidazo-[1,2-a]-quinoline-2-carboxylic acid hydrochloride] and O=C(O)c1cn2c(cc(Cl)c3ccc(Cl)cc32)n1 [Example 22, 5,8-dichloroimidazo-[1,2-a]-quinoline-2-carboxylic acid] are within 1.5-fold of each other in ED50: 0.016 mg/kg for the first, 0.023 mg/kg for the second.

CC(C)Oc1cc2nc(C(=O)O)cn2c2cc(Cl)ccc12 [Example 18, 8-chloro-5-isopropoxyimidazo-[1,2-a]-quinoline-2-carboxylic acid] and O=C(O)c1cn2c(cc(Cl)c3ccc(Br)cc32)n1 [Example 32, 8-bromo-5-chloroimidazo-[1,2-a]-quinoline-2-carboxylic acid] are within 1.5-fold of each other in ED50: 0.027 mg/kg for the first, 0.025 mg/kg for the second.

COc1ccc2ccc3nc(C(=O)O)cn3c2c1 [Example 20, 8-methoxyimidazo-[1,2-a]-quinoline-2-carboxylic acid] and COc1ccc2c(ccc3nc(C(=O)O)cn32)c1 [Example 28, 7-methoxyimidazo-[1,2-a]-quinoline-2-carboxylic acid] are within 1.5-fold of each other in ED50: 0.038 mg/kg for the first, 0.03 mg/kg for the second.

O.O=C(O)c1cn2c(ccc3cc(Cl)ccc32)n1 [Example 24, 7-chloroimidazo-[1,2-a]-quinoline-2-carboxylic acid monohydrate] and O=C(OCCN1CCCCC1)c1cn2c(ccc3ccccc32)n1 [Example 35, 2-piperidinoethyl imidazo-[1,2-a]-quinoline-2-carboxylate] are within 1.5-fold of each other in ED50: 0.29 mg/kg for the first, 0.42 mg/kg for the second.

Same assay, conditions: Rattus norvegicus, read-out: ED50 (dose of drug giving 50% inhibition), p.o., oral dosing immediately prior to antigen/Evans blue challenge

Going from O=C(O)c1cn2c(ccc3ccccc32)n1 [Example 2, imidazo-[1,2-a]-quinoline-2-carboxylic acid hydrochloride] to O=C(O)c1cn2c(ccc3ccc(Cl)cc32)n1 [Example 10, sodium 8-chloroimidazo-[1,2-a]-quinoline-2-carboxylate], the ED50 falls from 0.63 mg/kg to 0.11 mg/kg (5.7-fold).

Compared with COc1cc2nc(C(=O)O)cn2c2ccccc12 [Example 4, THAM salt of 5-methoxyimidazo-[1,2-a]-quinoline-2-carboxylic acid], CC(C)Oc1cc2nc(C(=O)O)cn2c2ccccc12 [Example 8, 5-isopropoxyimidazo-[1,2-a]-quinoline-2-carboxylic acid hydrochloride] is 3.3-fold lower in ED50: 3.74 mg/kg for the first, 1.13 mg/kg for the second.

Going from CCOC(=O)c1cn2c(cc(Cl)c3ccccc32)n1 [Example 5, ethyl 5-chloroimidazo-[1,2-a]-quinoline-2-carboxylate] to O=C(O)c1cn2c(cc(Cl)c3ccccc32)n1 [Example 6, 5-chloroimidazo-[1,2-a]-quinoline-2-carboxylic acid hydrochloride], the ED50 rises from 0.096 mg/kg to 0.47 mg/kg (4.9-fold).

First: CCOC(=O)c1cn2c(ccc3ccc(Cl)cc32)n1 [Example 9, ethyl 8-chloroimidazo-[1,2-a]-quinoline-2-carboxylate]
Second: COc1ccc2ccc3nc(C(=O)O)cn3c2c1 [Example 20, 8-methoxyimidazo-[1,2-a]-quinoline-2-carboxylic acid]
The ED50 of the first is 12-fold higher: 1.72 mg/kg for the first, 0.14 mg/kg for the second.

Compared with COc1ccc2c(OC(C)C)cc3nc(C(=O)O)cn3c2c1 [Example 14, 8-methoxy-5-isopropoxyimidazo-[1,2-a]-quinoline-2-carboxylic acid], CC(C)Oc1cc2nc(C(=O)O)cn2c2cc(Cl)ccc12 [Example 18, 8-chloro-5-isopropoxyimidazo-[1,2-a]-quinoline-2-carboxylic acid] is 29-fold lower in ED50: about 10 mg/kg for the first, 0.34 mg/kg for the second.

Going from COc1ccc2c(Cl)cc3nc(C(=O)O)cn3c2c1.Cl [Example 16, 5-chloro-8-methoxyimidazo-[1,2-a]-quinoline-2-carboxylic acid hydrochloride] to O=C(O)c1cn2c(cc(Cl)c3ccc(Cl)cc32)n1 [Example 22, 5,8-dichloroimidazo-[1,2-a]-quinoline-2-carboxylic acid], the ED50 falls from 0.27 mg/kg to 0.033 mg/kg (8.2-fold).

Compared with O=C(O)c1cn2c(cc(Br)c3ccccc32)n1 [Example 26, 5-bromoimidazo-[1,2-a]-quinoline-2-carboxylic acid], O=C(O)c1cn2c(cc(Cl)c3ccc(Br)cc32)n1 [Example 32, 8-bromo-5-chloroimidazo-[1,2-a]-quinoline-2-carboxylic acid] is 1.8-fold lower in ED50: 0.14 mg/kg for the first, 0.08 mg/kg for the second.
